Laboratory results published in ChEMBL document CHEMBL3217555, “Potent and selective inhibitors of human peptidylglycine -amidating monooxygenase” (Medchemcomm, 2011).
Where a SMILES comes first, the peptide text is derived from it.

What was measured:
[1] = (§1) Competitive binding affinity to Xenopus laevis PAM using (R)-Tyr-(S)-ValGly as substrate after 1 hr by HPLC analysis
[2] = molecular target: T1, Peptidyl-glycine alpha-amidating monooxygenase (Homo sapiens, UniProt P19021); assay: Competitive inhibition of PAM secreted from human PC3 cells by Dixon plot analysis; assay type: cell-based, PC-3
T1 sequence (P19021 whole entry): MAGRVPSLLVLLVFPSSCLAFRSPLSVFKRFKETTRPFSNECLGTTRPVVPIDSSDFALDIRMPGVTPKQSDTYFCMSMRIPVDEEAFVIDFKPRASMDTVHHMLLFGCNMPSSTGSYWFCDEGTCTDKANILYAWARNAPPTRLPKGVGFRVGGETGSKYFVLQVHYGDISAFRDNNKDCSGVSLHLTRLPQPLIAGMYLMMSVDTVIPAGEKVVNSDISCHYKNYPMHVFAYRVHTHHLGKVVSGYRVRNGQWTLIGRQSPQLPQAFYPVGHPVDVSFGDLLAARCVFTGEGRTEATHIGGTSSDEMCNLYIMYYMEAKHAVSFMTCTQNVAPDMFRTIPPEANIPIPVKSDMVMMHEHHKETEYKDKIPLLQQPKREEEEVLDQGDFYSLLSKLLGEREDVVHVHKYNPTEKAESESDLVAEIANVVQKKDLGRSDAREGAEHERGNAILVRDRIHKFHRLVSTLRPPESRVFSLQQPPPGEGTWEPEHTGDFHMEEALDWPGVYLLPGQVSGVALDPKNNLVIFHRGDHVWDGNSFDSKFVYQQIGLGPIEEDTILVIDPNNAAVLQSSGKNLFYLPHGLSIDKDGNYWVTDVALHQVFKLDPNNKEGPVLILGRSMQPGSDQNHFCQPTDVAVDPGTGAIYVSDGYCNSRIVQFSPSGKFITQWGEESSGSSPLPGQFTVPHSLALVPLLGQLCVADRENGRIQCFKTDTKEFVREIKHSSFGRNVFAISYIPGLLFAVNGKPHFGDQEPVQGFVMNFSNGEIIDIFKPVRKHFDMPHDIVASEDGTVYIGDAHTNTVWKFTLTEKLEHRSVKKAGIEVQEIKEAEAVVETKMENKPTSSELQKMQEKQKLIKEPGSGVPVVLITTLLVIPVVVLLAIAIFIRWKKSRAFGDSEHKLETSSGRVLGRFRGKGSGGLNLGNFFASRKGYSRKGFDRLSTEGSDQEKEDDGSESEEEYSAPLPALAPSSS

Xenopus laevis = organism: Xenopus laevis; assay: as §1
H889 = assay: Selectivity ratio of IC50 for Xenopus laevis PAM to IC50 for PAM extracted from human H889 cells; assay type: cell-based
[3] = molecular target: T1, Peptidyl-glycine alpha-amidating monooxygenase; assay: (§2) Competitive binding affinity to PAM extracted from human H889 cells using (R)-Tyr-(S)-ValGly as substrate after 2 hrs by HPLC analysis
[4] = molecular target: T2, Peptidyl-glycine alpha-amidating monooxygenase (Homo sapiens) (UniProt P19021); assay: Potency index, ratio of Procalcitonin Km(app) to compound IC50 for PAM extracted from human DMS53 cells; assay type: cell-based; conditions: DMS-53
T2 sequence (whole entry): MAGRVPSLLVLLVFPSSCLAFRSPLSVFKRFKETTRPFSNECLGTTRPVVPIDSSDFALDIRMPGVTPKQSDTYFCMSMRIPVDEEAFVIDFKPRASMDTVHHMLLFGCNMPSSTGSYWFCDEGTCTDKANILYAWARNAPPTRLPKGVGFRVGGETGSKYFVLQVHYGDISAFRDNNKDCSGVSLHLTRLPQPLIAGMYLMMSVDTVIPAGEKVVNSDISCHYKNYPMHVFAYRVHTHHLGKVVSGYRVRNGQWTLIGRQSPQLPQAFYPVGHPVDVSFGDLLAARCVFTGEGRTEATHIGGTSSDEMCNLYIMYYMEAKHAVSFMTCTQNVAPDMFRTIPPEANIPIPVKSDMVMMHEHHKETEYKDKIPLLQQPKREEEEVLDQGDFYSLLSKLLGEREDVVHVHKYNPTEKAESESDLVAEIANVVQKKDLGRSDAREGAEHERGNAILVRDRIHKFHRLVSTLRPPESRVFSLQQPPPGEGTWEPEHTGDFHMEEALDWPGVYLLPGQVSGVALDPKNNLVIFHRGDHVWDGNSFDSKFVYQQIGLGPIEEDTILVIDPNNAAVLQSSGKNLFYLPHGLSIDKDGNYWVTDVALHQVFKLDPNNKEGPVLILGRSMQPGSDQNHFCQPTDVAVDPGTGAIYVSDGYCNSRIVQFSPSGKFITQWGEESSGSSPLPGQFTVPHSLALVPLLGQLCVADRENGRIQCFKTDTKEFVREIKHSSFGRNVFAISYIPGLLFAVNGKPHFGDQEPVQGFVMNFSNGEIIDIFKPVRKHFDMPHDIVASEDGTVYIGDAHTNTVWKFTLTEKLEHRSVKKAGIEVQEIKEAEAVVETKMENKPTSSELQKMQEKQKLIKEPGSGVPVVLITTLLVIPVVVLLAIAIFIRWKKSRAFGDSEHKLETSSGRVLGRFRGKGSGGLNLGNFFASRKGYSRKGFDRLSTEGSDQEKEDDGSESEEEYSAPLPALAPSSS

[5] = molecular target: T1, Peptidyl-glycine alpha-amidating monooxygenase; assay: Competitive binding affinity to PAM extracted from human DMS53 cells using (R)-Tyr-(S)-ValGly as substrate after 2 hrs by HPLC analysis; design: species or system DMS-53
[6] = molecular target: T2, Peptidyl-glycine alpha-amidating monooxygenase (Homo sapiens); assay: Potency index, ratio of Procalcitonin Km(app) to compound IC50 for PAM extracted from human H889 cells; assay type: cell-based
[7] = molecular target: T1, Peptidyl-glycine alpha-amidating monooxygenase; assay: Competitive binding affinity to PAM secreted from human DMS53 cells using (R)-Tyr-(S)-ValGly as substrate after 2 hrs by HPLC analysis; design: species or system DMS-53
[8] = molecular target: T1, Peptidyl-glycine alpha-amidating monooxygenase; assay: Competitive binding affinity to PAM secreted from human SW1783 cells using (R)-Tyr-(S)-ValGly as substrate after 2 hrs by HPLC analysis
[9] = molecular target: T1, Peptidyl-glycine alpha-amidating monooxygenase; assay: Competitive binding affinity to PAM extracted from human PC3 cells using (R)-Tyr-(S)-ValGly as substrate after 2 hrs by HPLC analysis; design: species or system PC-3
[10] = molecular target: Peptidyl-glycine alpha-amidating monooxygenase (Homo sapiens) (UniProt P19021); assay: Competitive binding affinity to PAM extracted from human H889 cells using (R)-Tyr-(S)-ValGly as substrate after 2 hrs by HPLC analysis
[11] = substrate: CC(=O)N[C@@H](Cc1ccccc1)C(=O)NCC(=O)O; assay: as §2
[12] = substrate: O=C(O)CNC(=O)Cc1ccccc1; assay: as §2

CCCCCCCCCC(=O)SCC(=O)O
IC50 [1]: 9 µM

CCCCCC(=O)OCC(=O)O
IC50 [1]: 780 µM

O=C(O)C/C=C/c1ccccc1
Ki [2]: 0.096 µM

O=C(O)COC(=O)c1ccccc1
IC50 [1]: 250 µM

CC(=O)N[C@@H](CC(C)C)C(=O)SCC(=O)O
IC50 [1]: 260 µM

CCCCCCCCCCCCCC(=O)OCC(=O)O
IC50 [1]: 30 µM

O=C(O)CNC(=O)Cc1ccccc1
Km (Xenopus laevis): 440 µM

O=C(O)COC(=O)Cc1ccccc1
IC50 [1]: 510 µM
Ratio IC50 (H889): > 250
IC50 [3]: 2 µM

CCCCCCCCCCCC(=O)OCC(=O)O
IC50 [1]: 35 µM
IC50 [3]: 0.06 µM

O=C(O)CSC(=O)Cc1ccccc1
IC50 [1]: 20 µM
IC50 [3]: 45 µM

CCCCCCCCCC(=O)OCC(=O)O
IC50 [1]: 40 µM
Ratio [4]: 5000
IC50 [5]: 0.04 µM
Ratio IC50 (H889): 800
IC50 [3]: 0.05 µM
Ratio [6]: 6000
IC50 [7]: 30 µM
IC50 [8]: 30 µM
IC50 [9]: 0.12 µM

CSCC[C@H](NC(C)=O)C(=O)SCC(=O)O
IC50 [1]: 50 µM

CC(=O)N[C@@H](Cc1ccccc1)C(=O)OCC(=O)O
IC50 [1]: > 2000 µM

O=C(O)CSC(=O)c1ccccc1
IC50 [1]: 150 µM

CC(=O)N[C@@H](Cc1ccccc1)C(=O)SCC(=O)O
IC50 [1]: 25 µM
IC50 [3]: 45 µM

CCCCCCCC(=O)OCC(=O)O
IC50 [1]: 250 µM

CC(=O)N[C@@H](Cc1ccccc1)C(=O)NCC(=O)O (Ac-Phe-Gly-OH)
Km (Xenopus laevis): 170 µM

CCCCCCCCCC(=O)NCC(=O)O
Km (Xenopus laevis): 440 µM
IC50 [5]: 30 µM
IC50 [7]: 110 µM

B1: Peptidyl-glycine alpha-amidating monooxygenase (Homo sapiens), P19021 (protein)
chain: MAGRVPSLLVLLVFPSSCLAFRSPLSVFKRFKETTRPFSNECLGTTRPVVPIDSSDFALDIRMPGVTPKQSDTYFCMSMRIPVDEEAFVIDFKPRASMDTVHHMLLFGCNMPSSTGSYWFCDEGTCTDKANILYAWARNAPPTRLPKGVGFRVGGETGSKYFVLQVHYGDISAFRDNNKDCSGVSLHLTRLPQPLIAGMYLMMSVDTVIPAGEKVVNSDISCHYKNYPMHVFAYRVHTHHLGKVVSGYRVRNGQWTLIGRQSPQLPQAFYPVGHPVDVSFGDLLAARCVFTGEGRTEATHIGGTSSDEMCNLYIMYYMEAKHAVSFMTCTQNVAPDMFRTIPPEANIPIPVKSDMVMMHEHHKETEYKDKIPLLQQPKREEEEVLDQGDFYSLLSKLLGEREDVVHVHKYNPTEKAESESDLVAEIANVVQKKDLGRSDAREGAEHERGNAILVRDRIHKFHRLVSTLRPPESRVFSLQQPPPGEGTWEPEHTGDFHMEEALDWPGVYLLPGQVSGVALDPKNNLVIFHRGDHVWDGNSFDSKFVYQQIGLGPIEEDTILVIDPNNAAVLQSSGKNLFYLPHGLSIDKDGNYWVTDVALHQVFKLDPNNKEGPVLILGRSMQPGSDQNHFCQPTDVAVDPGTGAIYVSDGYCNSRIVQFSPSGKFITQWGEESSGSSPLPGQFTVPHSLALVPLLGQLCVADRENGRIQCFKTDTKEFVREIKHSSFGRNVFAISYIPGLLFAVNGKPHFGDQEPVQGFVMNFSNGEIIDIFKPVRKHFDMPHDIVASEDGTVYIGDAHTNTVWKFTLTEKLEHRSVKKAGIEVQEIKEAEAVVETKMENKPTSSELQKMQEKQKLIKEPGSGVPVVLITTLLVIPVVVLLAIAIFIRWKKSRAFGDSEHKLETSSGRVLGRFRGKGSGGLNLGNFFASRKGYSRKGFDRLSTEGSDQEKEDDGSESEEEYSAPLPALAPSSS
Km [10]: 200 µM
Km [11]: 15 µM
Km [12]: 330 µM
